# From patent US20100129434A1, “COMPOSITIONS AND METHODS FOR THE TREATMENT OF MUCORMYCOSIS AND OTHER FUNGAL DISEASES” (priority 2006, published 2010)
# Key:
# [1] = tested on: R. oryzae; assay: Survival of guinea pigs infected with R. oryzae and treated with iron chelators; format: in vivo; details: guinea pigs infected with R. oryzae
# Description: The role of iron metabolism in the pathogenesis of mucormycosis allows the possibility of utilizing effective iron chelators for antifungal therapy, including as an adjunctive antifungal therapy.
# [2] = tested on: R. oryzae; assay: Survival of diabetic ketoacidotic (DKA) mice infected with R. oryzae; format: in vivo, BALB/c male mice; details: for survival compared to placebo: 4.3×10^3 spores; for efficacy of Def on administration of FeCl3: Def 100 mg/kg qod plus FeCl3 60 mg/kg iv
# Experimental: (§1) Briefly, for in vivo infection, BALB/c male mice (>20 g) were rendered diabetic with a single i.p. injection of 210 mg/kg streptozotocin in 0.2 ml citrate buffer 10 days prior to fungal challenge. […] Mice were infected through the tail vein with the appropriate inocula of R. oryzae. To confirm the inocula, dilutions were streaked on PDA plates and colonies were counted following a 24 h incubation period at room temperature. The primary efficacy endpoint was time to death. As a secondary endpoint, brain fungal burden (the primary target organ) was determined by homogenization by rolling a pipette on organs placed in Whirl-Pak bags (Nasco, Fort Atkinson, Wis.) containing 2 ml saline. The homogenate was serially diluted in 0.85% saline and then quantitatively cultured on PDA. Values were expressed as log 10 cfu g^−1 tissue. All procedures involving mice were approved by the institutional animal use and care committee, following the National Institutes of Health guidelines for animal housing and care.
# Deferiprone (Apotex Research Inc.) was dissolved in iron-free water and administered intraperitoneally at 50, 100, or 200 mg/kg qd or qod (every other day). Treatment was begun 24 h post infection and continued for a total of 4 doses. Control groups were treated with the diluent, 5% dextrose water.
# Deferiprone is known to form molecular complexes with ferric iron (^3+Fe) in a 1:3 ratio of iron to deferiprone. Based on the known molecular weights of ferric chloride (FeCl3, molecular weight 162.22 g/mol) and deferiprone (molecular weight 139 g/mol), a 60 mg/kg dose of FeCl3 was calculated to result in a significant excess of ^3+Fe vs. a 100 mg/kg dose of deferiprone given to an 18 g mouse: ^3+Fe moles=(0.060 g/kg*0.018 kg [mouse weight]/162.22 g/mol)=6.5×10^−6 mol vs. deferiprone moles=(0.1 g/kg*0.018 kg [mouse weight]/139 g/mol)=1.3×10^−5 mol Ratio=1:2 moles of ^3+Fe to deferiprone, which is more than that required to achieve a saturating 1:3 ratio.
# Statistical analysis was performed using the nonparametric log rank test was used to determine differences in survival times of the mice. Differences in tissue fungal burdens in the infected organs were compared by the nonparametric Steel test for multiple comparisons. P values of <0.05 were considered significant.
# Deferasirox (Novartis Pharmaceuticals, Basel, Switzerland) was suspended in 0.5% hydroxypropylcellulose (Klucel) and administered by oral gavage at 1, 3, or 10 mg/kg […] (qd) or every other day (qod). Treatment was begun 24 h post infection and continued for a total of 5 or 7 doses. Control groups were treated with the diluent, 5% dextrose water and 0.5% Klucel. In some experiments, a saturating dose of free iron was administered with deferasirox. Deferasirox is known to form molecular complexes with ferric iron (^3+Fe) in a 1:2 ratio of iron to deferasirox. Based on the known molecular weights of ferric chloride (FeCl3, molecular weight 162.22 g/mol) and deferasirox (molecular weight 373.4 g/mol), a 2.8 mg/kg dose of FeCl3 was calculated to result in a significant excess of ^3+Fe vs. a 10 mg/kg dose of deferasirox given to an 18 g mouse: ^3+Fe moles=(0.0028 g/kg*0.018 kg [mouse weight]/162.22 g/mol)=3×10^−7 mol vs. deferasirox moles=(0.01 g/kg*0.018 kg [mouse weight]/373.4 g/mol)=5×10^−7 mol Ratio=1:1.7 moles of ^3+Fe to deferasirox, which is more than that required to achieve a saturating 1:2 ratio.
# The nonparametric log rank test was used to determine differences in survival times of the mice. Differences in tissue fungal burdens, splenic lymphocyte frequencies, and whole organ cytokines in the infected organs were compared by the Mann Whitney U test. P values of <0.05 were considered significant.
# [3] = tested on: R. oryzae; assay: Survival of neutropenic mice infected with R. oryzae; format: in vivo; details: prophylaxis from day −1, Def qod, LAmB qd or both, four doses, placebo 0%
# Experimental: (§2) For in vivo infection, BALB/c male mice (>20 g) were rendered diabetic with a single i.p. injection of 210 mg/kg streptozotocin in 0.2 ml citrate buffer 10 days prior to fungal challenge. […] For neutropenic mouse model, mice were injected with a single i.p. dose of 200 mg/kg cyclolphosphamide (Bristol Myer Squibb) 2 days prior to infection with R. oryzae. […] Mice were infected through the tail vein with the appropriate inocula of R. oryzae. To confirm the inocula, dilutions were streaked on PDA plates containing 0.1% triton and colonies were counted following a 24 h incubation period at 37° C. The primary efficacy endpoint was time to death. As a secondary endpoint, brain fungal burden (the primary target organ) was determined by homogenization by rolling a pipette on organs placed in Whirl-Pak™ bags (Nasco®, Fort Atkinson, Wis.) containing 1 ml saline. The homogenate was serially diluted in 0.85% saline and then quantitatively cultured on PDA. Values were expressed as log10 cfu g−1 tissue. Finally, for histopathological analysis, infected organs were collected from mice and fixed in 10% zinc formalin. Fixed tissues were embedded in paraffin, and […] sections were stained with haematoxylin and eosin for light microscopy examination. All procedures involving mice were approved by the institutional animal use and care committee, following the National Institutes of Health guidelines for animal housing and care.
# Two days later, mice were infected via the tail-vein with 2.7×10^3 spores of R. oryzae 99-892.
# [4] = tested on: R. oryzae 99-880; assay: MIC and MFC of deferiprone and deferoxamine against R. oryzae; format: cell-based, Rhizopus oryzae; details: for MFC / MIC: R. oryzae
# Experimental: Initially, the in vitro activity of deferiprone against R. oryzae was assessed in this study. Briefly, R. oryzae 99-880 was isolated from a brain abscess of a diabetic patient. The organism was grown on potato dextrose agar (PDA) for 3 days at 37° C. In some experiments, R oryzae was starved for iron by growth on PDA in the presence of 1 mM of ascorbic acid and ferrozine. The sporangiospores were collected in endotoxin free PBS containing 0.01% Tween 80, washed with PBS then counted with hemacytometer to prepare the final inocula. For susceptibility testing, the minimum inhibitory concentration (MIC) and minimum fungicidal concentration (MFC) were determined for Def and deferoxamine by the method of Espinel-Ingroff (J Clin Microbiol 39:954 (2001)).
# [5] = tested on: R. oryzae; assay: Tissue fungal burden of DKA mice infected with R. oryzae; format: in vivo, BALB/c male mice; details: 3.8×10^3 spores, two doses, brains harvested about 54 h post-infection, P<0.036
# Experimental: as §1, §2
# [6] = tested on: invasive mucormycosis; details: patients treated with deferoxamine; cited from earlier work
# [7] = Rhizopus arrhizus, 99880, 24 h, 24 h
# [8] = Rhizopus arrhizus, 99880, 48 h, 48 h
Structure (SMILES),Mean (±SD) Survival Time [1],"28-day survival ([2]; DKA mice infected with R. oryzae, treatment from 24 h post infection, 4 doses, LAmB 15 mg/kg qd iv, Def 100 mg/kg qod ip, placebo 0%)","survival compared to placebo ([2]; DKA mice, 50 mg/kg qd or qod)","survival compared to placebo ([2]; DKA mice, 100 mg/kg qd or 200 mg/kg qd or qod)","survival compared to placebo ([2]; DKA mice, 100 mg/kg qod, 4 doses from 24 h post infection, P=0.027)",efficacy of Def on administration of FeCl3 ([2]; DKA mice),"efficacy of Def on administration of FeCl3 ([2]; DKA mice, listed as Def)","28-day survival compared to placebo ([2]; DKA mice, LAmB 15 mg/kg qd or deferiprone 100 mg/kg qod, P<0.003 Log Rank)",survival [3],static or cidal effect against R. oryzae ([4]; 24 h of incubation),"static or cidal effect against R. oryzae ([4]; 24 h of incubation, listed as deferiprone)",static or cidal effect against R. oryzae ([4]; 48 h of incubation),"static or cidal effect against R. oryzae ([4]; 48 h of incubation, listed as deferiprone)",MFC ([4]; 48 h),"MIC [4, 7]","MIC [4, 8]",brain fungal burden compared to placebo [5],mortality of invasive mucormycosis [6],"MFC ([4]; 24 h, listed as deferoxamine)","MFC ([4]; 48 h, listed as deferoxamine)"
CCc1c(O)c(=O)ccn1CC [CP94],8.7 ± 1.0 days,,,,,,,,,,,,,,,,,,,
"Cc1c(O)c(=O)ccn1C [Deferiprone, 1,2 dimethyl-3-hydroxypyrid-4-1]",16.2 ± 4.0 days,30%,did not improve survival,did not improve survival,improved survival,completely abrogated,abrogated,improved 28-day survival,22%,static,static effect,cidality,cidal effect,6.25 µg/mL,3.12 µg/mL,6.25 µg/mL,reduced brain fungal burden,,,
CC(=O)N(O)CCCCCNC(=O)CCC(=O)N(O)CCCCCNC(=O)CCC(=O)N(O)CCCCCN [Deferoxamine],4.8 ± 1.1 days,,,,,,,,,,,,,,> 100 µg/mL,> 100 µg/mL,,> 80%,> 100 µg/mL,> 100 µg/mL
